Assay results: US4795743A, “2'-deamino-2'-hydroxyistamycin Bo derivatives of low toxicity” (Zaidan Hojin Biseibutsu Kagaku Kenkyu Kai, priority 1986, dated 1989)
≈ marks a conversion by molar mass, not a printed value. Read-outs that look alike come from different tables or passages of the source.

Tests used:
[1] = system: Pseudomonas maltophilia GN907; test: Antibacterial spectrum, standard serial dilution method; assay type: cell-based; settings: Stenotrophomonas maltophilia, Muller-Hinton medium, 37° C., 18 hours, read-out: Minimum Growth Inhibitory Concentration
[2] = system: Pseudomonas aeruguinosa B-13; test: as above; assay type: cell-based, Pseudomonas aeruginosa; settings: B13, Muller-Hinton medium, 37° C., 18 hours, read-out: Minimum Growth Inhibitory Concentration
[3] = system: Escherichia coli K-12 LA290 R64; test: as above; assay type: cell-based; settings: K12LA290R64, 18 h, read-out: Minimum Growth Inhibitory Concentration
Escherichia coli K-12 = test: as above; assay type: cell-based; settings: read-out: Minimum Growth Inhibitory Concentration
[4] = system: Mycobacterium smegmatis ATCC 607; test: as above; assay type: cell-based; settings: Mycolicibacterium smegmatis, read-out: Minimum Growth Inhibitory Concentration
[5] = system: Pseudomonas aeruguinosa A3; test: as above; assay type: cell-based, Pseudomonas aeruginosa; settings: read-out: Minimum Growth Inhibitory Concentration
[6] = system: Micrococcus flavus FDA 16; test: as above; assay type: cell-based; settings: read-out: Minimum Growth Inhibitory Concentration
Proteus rettgeri GN466 = test: as above; assay type: cell-based; settings: Providencia rettgeri, read-out: Minimum Growth Inhibitory Concentration
Sarcina lutea PCI 1001 = test: as above; assay type: cell-based; settings: Micrococcus luteus, read-out: Minimum Growth Inhibitory Concentration
Escherichia coli JR225 = test: as above; assay type: cell-based; settings: JR225, 18 h, read-out: Minimum Growth Inhibitory Concentration
[7] = system: Bacillus cereus ATCC 1-702; test: as above; assay type: cell-based; settings: read-out: Minimum Growth Inhibitory Concentration
[8] = system: Pseudomonas aeruguinosa H11; test: as above; assay type: cell-based, Pseudomonas aeruginosa; settings: Muller-Hinton medium, 37° C., 18 hours, read-out: Minimum Growth Inhibitory Concentration
Escherichia coli K-12 R5 = test: as above; assay type: cell-based; settings: K12R5, 18 h, read-out: Minimum Growth Inhibitory Concentration
[9] = system: Pseudomonas aeruguinosa TI-13; test: as above; assay type: cell-based, Pseudomonas aeruginosa; settings: read-out: Minimum Growth Inhibitory Concentration
mice = test: Acute toxicity by intravenous injection in mice; settings: for acute toxicity (survival, symptoms): mice, intravenous injection, 200 mg/kg
[10] = system: Staphylococcus aureus Smith; test: Antibacterial spectrum, standard serial dilution method; assay type: cell-based; settings: read-out: Minimum Growth Inhibitory Concentration
[11] = system: Salmonella enteritidis 1891; test: as above; assay type: cell-based; settings: Salmonella enterica, Muller-Hinton medium, 37° C., 18 hours, read-out: Minimum Growth Inhibitory Concentration
[12] = system: Escherichia coli K-12 ML1629; test: as above; assay type: cell-based; settings: K12ML1629, E. coli K-12 ML1629, Muller-Hinton medium, 37° C., 18 hours, read-out: Minimum Growth Inhibitory Concentration
[13] = system: Pseudomonas aeruguinosa GN315; test: as above; assay type: cell-based, Pseudomonas aeruginosa; settings: read-out: Minimum Growth Inhibitory Concentration
Salmonella typhi T-63 = test: as above; assay type: cell-based; settings: Salmonella enterica, 18 h, read-out: Minimum Growth Inhibitory Concentration
[14] = system: Pseudomonas aeruguinosa K-Ps 102; test: as above; assay type: cell-based, Pseudomonas aeruginosa; settings: read-out: Minimum Growth Inhibitory Concentration
[15] = system: Shibella flexneri 4b JS11811; test: as above; assay type: cell-based; settings: 18 h, read-out: Minimum Growth Inhibitory Concentration
[16] = system: Escherichia coli K-12 R388; test: as above; assay type: cell-based; settings: K12R388, 18 h, read-out: Minimum Growth Inhibitory Concentration
[17] = system: gram-negative and gram-positive bacteria; test: Antibacterial activity, overall result in words; assay type: cell-based; settings: overall statement in words
[18] = system: resistant bacteria, Pseudomonas aeruginosa, resistant strains of gram-negative and gram-positive bacteria; settings: background, earlier filings; cited from earlier work
[19] = K12, E. coli K-12, Muller-Hinton medium, 37° C., 18 hours
[20] = ATCC607, Mycobacterium smegmatis ATCC 607, Muller-Hinton medium, 37° C., 18 hours
[21] = FDA16, Micrococcus flavus FDA 16, Muller-Hinton medium, 37° C., 18 hours
[22] = Proteus rettgeri GN466, Muller-Hinton medium, 37° C., 18 hours
[23] = PCI1001, Sarcina lutea PCI 1001, Muller-Hinton medium, 37° C., 18 hours
[24] = ATCC1, Bacillus cereus ATCC 1-702, Muller-Hinton medium, 37° C., 18 hours
[25] = TI13, Pseudomonas aeruguinosa TI-13, Muller-Hinton medium, 37° C., 18 hours
[26] = S. aureus Smith, Muller-Hinton medium, 37° C., 18 hours
[27] = Pseudomonas aeruguinosa GN315, Muller-Hinton medium, 37° C., 18 hours
[28] = KPS102, Pseudomonas aeruguinosa K-Ps 102, Muller-Hinton medium, 37° C., 18 hours
[29] = Pseudomonas aeruguinosa A3, Muller-Hinton medium, 37° C., 18 hours
[30] = Micrococcus flavus, FDA16, 18 h

Compound | MIC [1] [µg/mL] | MIC [2] [µg/mL] | MIC [3] [µg/mL] | MIC [4, 20] [µg/mL] | MIC (Proteus rettgeri GN466; [22]) [µg/mL] | MIC (Escherichia coli JR225) [µg/mL] | MIC [7, 24] [µg/mL] | MIC [8] [µg/mL] | MIC (Escherichia coli K-12 R5) [µg/mL] | MIC [9, 25] [µg/mL] | acute toxicity (survival, symptoms) (mice) | MIC [11] [µg/mL] | MIC [12] [µg/mL] | MIC [13, 27] [µg/mL] | MIC (Salmonella typhi T-63) [µg/mL] | MIC [14, 28] [µg/mL] | MIC [15] [µg/mL] | MIC [16] [µg/mL] | MIC (Escherichia coli K-12; K12, 18 h) [µg/mL] | MIC [5, 29] [µg/mL] | other results
CNCC1CCC(O)C(OC2C(N)CC(OC)C(N(C)C(=O)CN)C2O)O1 (stereo not shown) [Compound No. 1, 2'-Deamino-2'-hydroxyistamycin B] | > 100 | > 100 | 3.13 (≈ 8.02 µM) | 25 (≈ 64 µM) | 3.13 (≈ 8.02 µM) | 3.13 (≈ 8.02 µM) | 50 (≈ 128 µM) | > 100 | 3.13 (≈ 8.02 µM) | 100 (≈ 256 µM) | survived without showing any sympton of toxicity | 6.25 (≈ 16 µM) | 6.25 (≈ 16 µM) | 100 (≈ 256 µM) | 1.56 (≈ 4 µM) | > 100 | 12.5 (≈ 32 µM) | 3.13 (≈ 8.02 µM) |  |  | MIC (Escherichia coli K-12; [19]): 3.13 µg/mL (≈ 8.02 µM); MIC ([5]; Pseudomonas, A3, 18 h): 6.25 µg/mL (≈ 16 µM); MIC [6, 21]: 25 µg/mL (≈ 64 µM); MIC (Sarcina lutea PCI 1001; [23]): 3.13 µg/mL (≈ 8.02 µM); MIC [10, 26]: 3.13 µg/mL (≈ 8.02 µM)
CNCC1CCC(O)C(OC2C(N)CC(O)C(N(C)C(=O)CN)C2O)O1 (stereo not shown) [Compound No. 2, 2'-Deamino-2'-hydroxy-3-O-demethylistamycin B] | > 100 | 25 (≈ 66.4 µM) | 3.13 (≈ 8.31 µM) |  |  | 1.56 (≈ 4.14 µM) |  | 25 (≈ 66.4 µM) | 3.13 (≈ 8.31 µM) |  | survived without showing any sympton of toxicity | 12.5 (≈ 33.2 µM) | 6.25 (≈ 16.6 µM) |  | 0.78 (≈ 2.07 µM) |  | 12.5 (≈ 33.2 µM) | 3.13 (≈ 8.31 µM) | 1.56 (≈ 4.14 µM) | 0.39 (≈ 1.04 µM) | MIC ([4]; ATCC607, 18 h): 6.25 µg/mL (≈ 16.6 µM); MIC [6, 30]: 12.5 µg/mL (≈ 33.2 µM); MIC (Proteus rettgeri GN466; GN466, 18 h): 1.56 µg/mL (≈ 4.14 µM); MIC (Sarcina lutea PCI 1001; PCI1001, 18 h): 1.56 µg/mL (≈ 4.14 µM); MIC ([7]; Bacillus cereus, ATCC1, 18 h): 6.25 µg/mL (≈ 16.6 µM); MIC ([9]; Pseudomonas, TI13, 18 h): 12.5 µg/mL (≈ 33.2 µM); MIC ([10]; 18 h): 1.56 µg/mL (≈ 4.14 µM); MIC ([13]; Pseudomonas, GN315, 18 h): 12.5 µg/mL (≈ 33.2 µM); MIC ([14]; Pseudomonas, KPS102, 18 h): 12.5 µg/mL (≈ 33.2 µM)
CNCC1CCC(O)C(OC2C(N)CC(OC)C(N(C)C(=O)CCN)C2O)O1 (stereo not drawn) [Compound No. 3, 4-N-(β-Alanyl)-2'-deamino-2'-hydroxyistamycin Bo] | > 100 | 100 (≈ 247 µM) | 3.13 (≈ 7.74 µM) | 25 (≈ 61.8 µM) | 0.78 (≈ 1.93 µM) | 3.13 (≈ 7.74 µM) | 25 (≈ 61.8 µM) | 100 (≈ 247 µM) | 3.13 (≈ 7.74 µM) | 100 (≈ 247 µM) | survived without showing any sympton of toxicity | 6.25 (≈ 15.5 µM) | 6.25 (≈ 15.5 µM) | 50 (≈ 124 µM) | 1.56 (≈ 3.86 µM) | 50 (≈ 124 µM) | 6.25 (≈ 15.5 µM) | 3.13 (≈ 7.74 µM) | 3.13 (≈ 7.74 µM) |  | MIC ([5]; Pseudomonas, A3, 18 h): 3.13 µg/mL (≈ 7.74 µM); MIC [6, 30]: 6.25 µg/mL (≈ 15.5 µM); MIC (Sarcina lutea PCI 1001; PCI1001, 18 h): 3.13 µg/mL (≈ 7.74 µM); MIC ([10]; 18 h): 3.13 µg/mL (≈ 7.74 µM)
CNCC1CCC(O)C(OC2C(N)CC(O)C(N(C)C(=O)CCN)C2O)O1 (stereo not drawn) [Compound No. 4, 4-N-(β-Alanyl)-2'-deamino-2'-hydroxy-3-O-demethylistamycin Bo] | > 100 | 12.5 (≈ 32 µM) | 1.56 (≈ 4 µM) |  | 0.39 (≈ 0.999 µM) | 1.56 (≈ 4 µM) |  | 12.5 (≈ 32 µM) | 1.56 (≈ 4 µM) | 12.5 (≈ 32 µM) | survived without showing any sympton of toxicity | 3.13 (≈ 8.02 µM) | 3.13 (≈ 8.02 µM) | 12.5 (≈ 32 µM) | 0.78 (≈ 2 µM) | 25 (≈ 64 µM) | 6.25 (≈ 16 µM) | 1.56 (≈ 4 µM) | 1.56 (≈ 4 µM) | 0.39 (≈ 0.999 µM) | antibacterial activity [17]: very much good antibacterial activity; antibacterial activity ([17]; listed as 4-N-(β-alanyl)-2'-deamino-2'-hydroxy-3-O-demethylistamycin Bo): antibacterial activity as high as that of istamycin B; MIC ([4]; ATCC607, 18 h): 6.25 µg/mL (≈ 16 µM); MIC [6, 30]: 3.13 µg/mL (≈ 8.02 µM); MIC (Sarcina lutea PCI 1001; PCI1001, 18 h): 1.56 µg/mL (≈ 4 µM); MIC ([7]; Bacillus cereus, ATCC1, 18 h): 6.25 µg/mL (≈ 16 µM); toxicity (mice; overall statement, comparison with istamycin B or low toxicity): lower toxicity than itstamycin B; MIC ([10]; 18 h): 1.56 µg/mL (≈ 4 µM)
CNCC1CCC(N)C(OC2C(N)CC(OC)C(N(C)C(=O)CN)C2O)O1 (stereo not shown) [Istamycin B, istamycin B] | > 100 | > 100 | 1.56 (≈ 4.01 µM) | 0.78 (≈ 2 µM) | 0.78 (≈ 2 µM) | 0.78 (≈ 2 µM) | 6.25 (≈ 16 µM) | 50 (≈ 128 µM) | 0.78 (≈ 2 µM) | 25 (≈ 64.2 µM) |  | 3.13 (≈ 8.04 µM) | 1.56 (≈ 4.01 µM) | 25 (≈ 64.2 µM) | 0.39 (≈ 1 µM) | 25 (≈ 64.2 µM) | 3.13 (≈ 8.04 µM) | 1.56 (≈ 4.01 µM) |  | 0.39 (≈ 1 µM) | antibacterial activity [18]: highest antibacterial activity; MIC (Escherichia coli K-12; [19]): 0.78 µg/mL (≈ 2 µM); MIC [6, 21]: 25 µg/mL (≈ 64.2 µM); MIC (Sarcina lutea PCI 1001; [23]): 0.39 µg/mL (≈ 1 µM); MIC [10, 26]: 0.39 µg/mL (≈ 1 µM)
